Source: patent publication US20060281818A1, “Method for treating mucosal disorders” (SUCAMPO AG, NORTH CAROLINA STATE UNIVERSITY, priority 2005, published 2006)
“Also recorded” adds a separate entry of the source. Marks after values point to notes of the source that are not given here.

Key:
[1] = system: ischemia-injured porcine ileum; assay: Ussing chamber: short circuit current (Isc) and transepithelial electrical resistance (TER); format: cell-based; conditions: for absolute change in Isc (Δ Isc): mean±SE
Procedure: (§1) Six to eight-week-old Yorkshire crossbred pigs of either sex were housed individually, and maintained on a commercial pelleted feed. Pigs were held off feed for 24 hours prior to experimental surgery. General anesthesia was induced with xylazine (1.5 mg/kg, IM), ketamine (11 mg/kg, IM), and thiopental (15 mg/kg, IV) and was maintained with intermittent infusion of thiopental (6-8 mg/kg/hr). Pigs were placed on a heating pad and ventilated with 100% O2 via a tracheotomy using a time-cycled ventilator. The jugular vein and carotid artery were cannulated and blood gas analysis was performed to confirm normal pH and partial pressures of CO2 and O2. Lactated Ringers solution was administered intravenously at a maintenance rate of 15 ml/kg/hr. The ileum was approached via ventral midline incision. Ileal segments were delineated by ligating the intestine at 10 cm intervals, and subjected to ischemia by occluding the local mesenteric blood supply for 45 minutes.
Following the 45-minute ischemic period, tissues were harvested from the pig and the mucosa was stripped from the seromuscular layer in oxygenated (95% O2/ 5% CO2) Ringer's solution (mmol/l: Na^+, 154; K+, 6.3; Cl^−, 137; HCO3^−, 24; pH 7.4) containing 5×10^−6 M indomethacin to prevent endogenous PG production during the stripping procedure. Tissues were then mounted in 3.14 cm^2 aperture Ussing chambers. For Ussing chamber experiments, ileal tissues from one pig were mounted on multiple Ussing chambers and subjected to different in vitro treatments. Tissues were bathed on the serosal and mucosal sides with 10 ml Ringer's solution. The serosal bathing solution contained 10 mM glucose, and was osmotically balanced on the mucosal side with 10 mM mannitol. Bathing solutions were oxygenated (95% O2/5% CO2) and circulated in water-jacketed reservoirs. The spontaneous potential difference (PD) was measured using Ringer-agar bridges connected to calomel electrodes, and the PD was short-circuited through Ag—AgCl electrodes using a voltage clamp that corrected for fluid resistance. Transepithelial electrical resistance (Ω.cm^2) was calculated from the spontaneous PD and short-circuit current (Isc). If the spontaneous PD was between −1.0 and 1.0 mV, tissues were current clamped at ±100 μA for 5 seconds and the PD recorded. Short-circuit current and PD were recorded at 15-minute intervals over a 4-hour experiment.
After tissues were mounted on Ussing chambers, tissues were allowed to acclimate for a period of 30 minutes to achieve stable baseline measurements. Tissues were then treated with varying doses of COMPOUND A (13,14-dihydro-15-keto-16,16-difluoro-PGE1) (0.01 μM, 0.1 μM, and 1 μM) by adding the compound to the mucosal bathing solution (t=30 min).
Data were reported as means±SE. All data were analyzed by using an ANOVA for repeated measures, except where the peak response was analyzed by using a standard one-way ANOVA (Sigmastat, Jandel Scientific, San Rafael, Calif.). A Tukey's test was used to determine differences between treatments following ANOVA.

[2] = system: ischemia-injured porcine ascending colon; assay: Serosal to mucosal 3H-mannitol fluxes in colon; format: cell-based; conditions: ischemic porcine ascending colon, FIG. 6
From the text: (§2) According to the same procedure described in Example 1 except for using colon instead of ileum, recovery of mucosal barrier function in ischemic condition by the COMPOUND A was investigated.
(§3) A) Change in short circuit current response to COMPOUND A in ischemia-injured porcine ascending colon, B) Trans epithelial electrical resistance (TER) in response to COMPOUND A in ischemia-injured porcine ascending colon and C) Serosal to mucosal ^3H-mannitol fluxes in response to COMPOUND A in ischemia-injured porcine ascending colon were shown in FIGS. 4 to 6 respectively.

[3] = system: ischemia-injured porcine ascending colon; assay: Ussing chamber: short circuit current and TER in colon; format: cell-based; conditions: ischemic porcine ascending colon
From the text: as §2, §3

[4] = system: ischemia-injured porcine ileum; assay: Mucosal-to-serosal 3H-mannitol flux in Ussing chamber; format: cell-based; conditions: 1 μM; n=4; P<0.05
Procedure: as §1, with “Lactated Ringers solution was administered intravenously at a maintenance rate of 15 ml/kg/hr. The ileum was approached via ventral midline incision. Ileal segments were delineated by ligating the intestine at 10 cm intervals, and subjected to ischemia by occluding the local mesenteric blood supply for 45 minutes.” left out
Following the 45-minute ischemic period, tissues were harvested from the pig and the mucosa was stripped from the seromuscular layer in oxygenated (95% O2/ 5% CO2) Ringer's solution (mmol/l: Na^+, 154; K+, 6.3; Cl^−, 137; HCO3^−, 24; pH 7.4) containing 5×10^−6 M indomethacin to prevent endogenous PG production during the stripping procedure. […] The spontaneous potential difference (PD) was measured using Ringer-agar bridges connected to calomel electrodes, and the PD was short-circuited through Ag—AgCl electrodes using a voltage clamp that corrected for fluid resistance. Transepithelial electrical resistance (Ω.cm^2) was calculated from the spontaneous PD and short-circuit current (Isc). […]

[5] = system: ischemic-injured porcine ileal mucosa; assay: Morphometric assessment of epithelial restitution (histological examination); format: cell-based; conditions: Indo 5 μM, COMPOUND A 1 μM, mean±SE, n=3
Procedure: as §1
Tissues were taken at 0, 60, and 180 minutes for routine histologic evaluation. Tissues were sectioned (5 μm) and stained with hematoxylin and eosin. For each tissue, 3 sections were evaluated. Four well oriented villi and crypts were identified in each section. Villus length was obtained using a micrometer in the eye piece of a light microscope. In addition, the height of the epithelial-covered portion of each villus was measured. The surface area of the villus was calculated using the formula for the surface area of a cylinder. The formula was modified by subtracting the area of the base of the villus, and multiplying by a factor accounting for the variable position at which each villus was cross-sectioned (Gastroenterology 1993; 104:440-471). The percentage of the villous surface area that remained denuded was calculated from the total surface area of the villus and the surface area of the villus covered by epithelium. The percent denuded villous surface area was used as an index of epithelial restitution.
In table 1, values represents means±SE for % villus surface area denuded and Villus height; n=3. Tissues were mammalian ileum subjected to 45 min ischemia in vivo, after which they were mounted in Ussing chambers for monitoring of recovery responses. Tissues were harvested at 0 min, 60 min, and 180 min post-ischemia during the in vitro recovery phase, fixed in 10% buffered formalin, and processed for histological examination according to standard protocols. Indomethacin (Indo) was administered to select tissues a 5 μM, and COMPOUND A was given at 1 μM. Values lacking common superscript.(*,#) differ by P<0.05.

mammary carcinoma = assay: Incidence of mammary carcinoma, 104-week oral gavage study; format: in vivo; conditions: 104 weeks, female rats
Procedure: Female Crl:CD(SD)IGS BR VAF/Plus rats were assigned to 4 study groups (65/group). Groups 2 through 4 received 20, 100, or 400 μg/kg/day of COMPOUND A, respectively, by oral gavage for 104 weeks. The control group (Group 1) received 10 the vehicle, a 1% aqueous solution of Polysorbate 80. The dose volume was 5 mL/kg/day for all groups. When unscheduled death of animal occurred during the study period, a necropsy was performed on the animal. After 104 weeks of treatment, all surviving animals were sacrificed and necropsied. Each rat was evaluated microscopically for the occurrence of mammary carcinoma.

barrier function = conditions: Am. J. Physiol. Gastrointest. Liver Physiol. 281:G375-81, 2001; cited from earlier work
[6] = 1 μM applied to mucosal side, indomethacin 5×10^−6 M Ringer's, P<0.01

## CCCCC(F)(F)C(=O)CCC1C(O)CC(=O)C1CCCCCCC(=O)O (centres unmarked) [COMPOUND A, 13,14-dihydro-15-keto-16,16-difluoro-PGE1]
[1]; 0.01 μM, 0.1 μM and 1 μM applied to mucosal side
  TER (result in words): dose-dependent increases in TER
[1]; 0.01 μM
  absolute change in Isc (Δ Isc): 2±0.8
[1]; 0.1 μM and 1 μM doses, added after 30-min equilibration, n=6
  transepithelial electrical resistance (TER) (FIG. 1 legend, words): marked elevations in transepithelial electrical resistance (TER)
[1]; 0.1 μM and 1 μM, dose-dependent
  Isc, electrogenic Cl− secretion (result in words): sharp and significant (P<0.05) peaks in Isc
[1]; 0.1 μM
  absolute change in Isc (Δ Isc): 16±4.5
[1]; [6]
  increase in TER: 2 fold
  ΔTER: 26 Ω
[1]; 1 μM
  absolute change in Isc (Δ Isc): 29±5.1
[1]; increasing doses, n=6
  Cl− secretion indicated by Isc and ΔIsc (FIG. 2 legend, words): Significant (P<0.05) increases in Cl^− secretion
[2]
  serosal-to mucosal fluxes of 3H-mannitol (result in words): recuded serosal-to mucosal fluxes of ^3H-mannitol
[3]; FIG. 4
  Isc (result in words): increased Isc
[3]; FIG. 5
  TER (result in words): increased
[4]
  3H-mannitol mucosal-to-serosal flux (result in words): return of ^3H-mannitol flux to non-ischemic control levels; also recorded: reduced ^3H-mannitol mucosal-to-serosal fluxes to non-ischemic control levels
[5]; recovery time 60 min
  Epithelial surface area denuded (%): 4.2 ± 2.5* %
  Villus height (mm): 0.21 ± 0.02* mm
[5]; recovery time 180 min
  Epithelial surface area denuded (%): 0 ± 0** %
  Villus height (mm): 0.20 ± 0.01* mm
Mammary carcinoma; 20 μg/kg/day oral gavage, 65 examined (control 12 of 65)
  Number of animals with mammary carcinoma: 6
Mammary carcinoma; 100 μg/kg/day oral gavage, 65 examined (control 12 of 65)
  Number of animals with mammary carcinoma: 5
Mammary carcinoma; 400 μg/kg/day oral gavage, 63 examined (control 12 of 65)
  Number of animals with mammary carcinoma: 4
Mammary carcinoma; 20, 100 or 400 μg/kg/day oral gavage
  incidence of mammary carcinoma (result in words): reduced the incidence of mammary carcinoma

## COc1ccc2c(c1)c(CC(=O)O)c(C)n2C(=O)c1ccc(Cl)cc1 [Indo, Indomethacin, reference compound]
[5]; recovery time 60 min
  Epithelial surface area denuded (%): 6.6 ± 2.6* %
  Villus height (mm): 0.16 ± 0.01* mm
[5]; recovery time 180 min
  Epithelial surface area denuded (%): 0 ± 0** %
  Villus height (mm): 0.14 ± 0.03* mm

## deoxy-PGE1
Barrier function
  effects on barrier function (result in words): had not effects
